According to publication PMC7828231, “Delphinidin Increases the Sensitivity of Ovarian Cancer Cell Lines to 3-bromopyruvate” (International Journal of Molecular Sciences, 2021):
Read-outs that look alike come from different tables or passages of the source.

Experiments:
Test in all cases: Cytotoxicity, Neutral Red survival assay
Assay type in all cases: cell-based, human
[1] = system: MRC-5 fibroblasts; details: Homo sapiens, MRC5, read-out: IC50 of cell survival (extrapolated)
Description: (§1) SKOV3 and PEO1 cells were seeded in a clear 96-well plate at a density of 1 × 10^4 cells/well in 100-µL culture medium. MRC-5 cells were seeded at a density of 7.5 × 10^3/well and allowed to attach for 24 h at 37 °C. After incubation, the cells were treated with delphinidin chloride in a concentration range of 10–100 µM and 3-BP at concentrations between 5–25 µM for PEO1 and 10–50 µM for MRC-5 and SKOV3. Nontreated cells were used as a control. Stock solutions of tested substances were prepared in DMSO and their working solutions in culture media. The DMSO concentration was adjusted to 0.2% in all samples, which had no significant effect on the treated cells. After 24-h exposure time, the medium was removed and replaced with 100 µL of […] neutral red solution, and the cells were incubated at 37 °C for 1 h. Then, the cells were washed with PBS; fixed with 100 µL/well of 50% ethanol, 49% H2O and 1% glacial acetic acid and shaken (700 rpm) at room temperature for 20 min. Absorbance was measured at 540 nm against 620 nm.

[2] = system: PEO1 cells; details: Homo sapiens
Description: as §1

[3] = system: SKOV3 cells; details: Homo sapiens
Description: as §1

[4] = PEO1, PEO1, extrapolated from data obtained in the concentration range of 1–100 µM, read-out: IC50 of cell survival (extrapolated)
[5] = SK-OV-3, SKOV3, extrapolated from data obtained in the concentration range of 1–100 µM, read-out: IC50 of cell survival (extrapolated)
[6] = PEO1, 24 h, PEO1, 24-h exposure, Neutral Red, ND = no reduction of survival in the concentration range studied, read-out: IC50 of cell survival

Q: How did the IC50 [1] turn out when `COc1cc(-c2[o+]c3cc(O)cc(O)c3cc2O)cc(OC)c1O` [Malvidin chloride] was run?
A: The IC50 was greater than 100 µM.

Q: What about the IC50 ([2]; PEO1, read-out: IC50 of cell survival (extrapolated)) of the same compound?
A: The IC50 was greater than 100 µM.

Q: And the IC50 ([3]; SK-OV-3, 24 h, read-out: IC50 of cell survival)?
A: Its IC50 is 90 µM.

Q: What does the source list for `O=c1c(-c2ccc(O)cc2)coc2cc(O)ccc12` [Daidzein]?
A: IC50 [2, 4]: > 100 µM; IC50 [3, 5]: > 100 µM

Q: For `O=c1c(O)c(-c2cc(O)c(O)c(O)c2)oc2cc(O)cc(O)c12` [Myricetin], which IC50 [2, 6] is on record?
A: Its IC50 is 196 µM.

Q: With `COc1c(O)cc2oc(-c3ccc(O)cc3)cc(=O)c2c1O` [Hispidulin] as the compound, how does the IC50 ([2]; PEO1, 24 h, read-out: IC50 of cell survival) read?
A: The IC50 was 181 µM.

Q: And the IC50 ([3]; SK-OV-3, read-out: IC50 of cell survival (extrapolated))?
A: Its IC50 is greater than 100 µM.

Q: How did the IC50 [2, 6] turn out when `Oc1cc(O)c2cc(O)c(-c3ccc(O)c(O)c3)[o+]c2c1` [Cyanidin chloride] was run?
A: Its IC50 is 107 µM.

Q: `O=c1c(-c2ccc(O)cc2)coc2cc(O)cc(O)c12` [Genistein] was tested. Which IC50 [2, 4] did it give?
A: The IC50 was greater than 100 µM.

Q: And the IC50 [3, 5]?
A: The IC50 was greater than 100 µM.
